Results from patent publication US20050090453A1, “Methods of modulating IL-6” (SOLBEC PHARMACEUTICALS CO., LTD., priority 2003, published 2005).
≈ marks a conversion by molar mass, not a printed value.

Assays:
[1] = test system: A549 human lung adenocarcinoma; test: MTT assay, A549; assay type: cell-based; conditions: 72 hours, read-out: IC50 (concentration required to reduce cell viability by 50%)
Source text: (§1) A panel of five human malignant mesothelioma cell lines, established from the pleural fluid of patients with the disease. These cell lines, designed Ju77, Lo68, No36, One58 and Sty51 have been previously described (1). None of the patients from whom the cell lines were derived had been exposed to chemotherapeutic agents. Two cell lines were purchased from ATCC (Rockville, Md.) for use as controls: HT29—a human colon adenocarcinoma (ATCC HTB38) and A549—a human lung adenocarcinoma (ATCC CCL185). These cell lines are representative of tumours that are generally drug resistant but have shown some responses to newer chemotherapy agents.
(§2) Cells were maintained in RPMI-1640 containing 5% fetal calf serum (Life Technologies Inc., Melbourne), 5×10^−5 M 2-mercaptoethanol, 20 mM HEPES buffer, 100 IU benzylpenicillin/ml (CSL, Perth) and 50 μg gentamicin/ml (David Bull Laboratories, Melbourne), in water saturated air containing 5% CO2 at 37° C. This growth medium will henceforth be called RF-5. All cells were checked at 3 monthly intervals for Mycoplasma and remained negative to testing.
(§3) Drug sensitivities for each cell line were determined by use of the MTT (Sigma-Aldrich, NSW) assay modified from the method described by Mossman (2). […] Optical densities were determined using a SpectraMax 250 plate reader (Molecular Devices) at 570 nm. […]

[2] = test system: five human malignant mesothelioma cell lines (Ju77, Lo68, No36, One58, Sty51); test: MTT assay, five mesothelioma cell lines; assay type: cell-based; conditions: range over five mesothelioma cell lines, 72 hours, read-out: IC50 (concentration required to reduce cell viability by 50%)
Source text: as §1, §2, §3

[3] = test system: HT29 human colon adenocarcinoma; test: MTT assay, HT29; assay type: cell-based; conditions: HT-29, 72 hours, read-out: IC50 (concentration required to reduce cell viability by 50%)
Source text: as §1, §2, §3

[4] = test system: mesothelioma and control cells; test: MTT assay, drug toxicity in mesothelioma and control cells; assay type: cell-based, human; conditions: all cell lines
Source text: as §1, §2, §3

IL-6 [5] = test: IL-6 ELISA of media from treated mesothelioma and control cells; assay type: cell-based, human; conditions: for surge in IL-6 production: as the concentration of drug approached its IC50 value
Experimental: The IL-6 assay was performed using a human IL-6 ELISA kit (eBioscience, USA) according to the manufacturers protocol. Briefly ninety six well plates were incubated at room temperature overnight with 100 μL per well of monoclonal antihuman IL-6 antibody in coating buffer (0.1M Na2CO3/NaHCO3, pH 9.6). The plate was washed five times with PBS and then 200 μL of blocking buffer added to each well and incubated for one hour at room temperature. The plate was then washed five times in PBS with 0.005% Tween 20 (Sigma-Aldrich, NSW). 100 μL of each sample to be assayed was added to each well and also IL-6 standard solutions ranging from 0.6-400 pg/ml were used to generate a standard curve.
After a one hour incubation, the plate was washed as above and 100 μL of biotinylated-IL-6 antibody solution added for a further hour. Following further washes, 100 μL of streptavidin-HRP conjugate solution was added for 30 minutes and the plates washed. 100 μL of ABTS solution was added and following incubation for 30 minutes at 37° C., the plate was read at 405 nm on a SpectraMax 250 plate reader (Molecular Devices) and the concentration of IL-6 for each sample calculated from the standard curve.
Samples for use in the ELISA were prepared by seeding of cells in 96 well plates with or without chemotherapy as described previously. As in the previous experiments chemotherapy was added 24 hours after cell seeding. For cell lysis experiments 300 μl of distilled water was added to each well and lysis of cells was confirmed by visual inspection. Media from these assays was removed at the appropriate time and stored at −20° C. until the ELISA was performed. The concentration of IL-6 for each cell line represents the mean value generated from three separate experiments. The results from chemotherapy effects on IL-6 production are representative of two or more experiments.

IL-6 [6] = conditions: mesothelioma cells, concentrations producing a 5-30% reduction in relative cell growth; reference 3; cited from earlier work
[7] = test system: NO36 mesothelioma cell line; test: MTT assay, NO36; assay type: cell-based, human
Source text: as §1, §2, §3

IC50 [1] [ng/mL]	IC50 [2] [ng/mL]	IC50 [3] [ng/mL]	Structure (SMILES)	shape of dose response curve [4]	surge in IL-6 production (IL-6 [5])	IL-6 production compared to untreated cells (IL-6 [5]; concentrations below the IC50)	change in IL-6 concentration relative to untreated cells (IL-6 [6])	viability at 0.01 µg/mL ([7]; Homo sapiens, NO36 cells at 10 ng/ml) [%]	concentration at which cell death reaches a plateau ([7]; NO36 cells, MTT)
5.4 (≈ 6.68 nM)	4.7 to 7.6 (≈ 5.82 to 9.41 nM)	2 (≈ 2.48 nM)	CC(=O)O[C@@]12CO[C@@H]1C[C@H](O)[C@@]1(C)C(=O)[C@H](O)C3=C(C)[C@@H](OC(=O)[C@H](O)[C@@H](NC(=O)OC(C)(C)C)c4ccccc4)C[C@@](O)([C@@H](OC(=O)c4ccccc4)[C@H]21)C3(C)C [docetaxel, Docetaxel]	plateau effect is clear for all cell lines	a surge in IL-6 production was measured	did not effect IL-6 production			
1.75 (≈ 6.65 nM)	0.8 to 5 (≈ 3.04 to 19 nM)	6.7 (≈ 25.5 nM)	Nc1ccn([C@@H]2O[C@H](CO)[C@@H](O)C2(F)F)c(=O)n1 [gemcitabine]		a surge in IL-6 production was measured		decrease in the IL-6 concentration by up to one half	50	approximately 3 ng/ml
